This is an account of results in patent US11110149B2, “Method for predicting and monitoring the efficacy of low-dose IL-2 and hydroxychloroquine therapy in autoimmune diseases and its long-term use in autoimmune-related conditions” (KSL BIOMEDICAL INC., priority 2019, dated 2021).

One data set deals with SLE and/or pSS. Put plainly: Double-blinded trial of IL-2 plus HCZ regimen: tolerability. The note with it: 1 million IU IL-2 SC every other day and HCZ 200 mg Bid PO every day. It counts as in vivo, human.
The next data set has as its system lupus patients. The note with it: systematic review, high level of evidence; cited from earlier work.
For a further data set, the system named is Sjögren patients. The note with it: 120 Sjögren patients, vs placebo, after 6 months of therapy; cited from earlier work.

Regarding `CCN(CCO)CCCC(C)Nc1ccnc2cc(Cl)ccc12` (stereo not shown) [hydroxychloroquine], in the data set with SLE and/or pSS, the Tolerability of regimen result is “well tolerated”. In the data set with lupus patients, the “Decrease of mortality rates in lupus patients” value was “at least 50%” and the Lupus flares entry was “decreases lupus flares”. Besides, the “Primary symptoms of dryness, pain, or fatigue” value in the data set with Sjögren patients is “no significant improvement”.
